The values below come from ChEMBL document CHEMBL5120855, “Potent 2,3-dihydrophthalazine-1,4-dione derivatives as dual inhibitors for mono-ADP-ribosyltransferases PARP10 and PARP15” (Eur J Med Chem, 2022).

pEC50, pIC50: −log10 of the molar value.

Series [1] deals with T1, Protein mono-ADP-ribosyltransferase PARP15 (Homo sapiens, UniProt Q460N3).
T1 sequence (Q460N3 whole entry): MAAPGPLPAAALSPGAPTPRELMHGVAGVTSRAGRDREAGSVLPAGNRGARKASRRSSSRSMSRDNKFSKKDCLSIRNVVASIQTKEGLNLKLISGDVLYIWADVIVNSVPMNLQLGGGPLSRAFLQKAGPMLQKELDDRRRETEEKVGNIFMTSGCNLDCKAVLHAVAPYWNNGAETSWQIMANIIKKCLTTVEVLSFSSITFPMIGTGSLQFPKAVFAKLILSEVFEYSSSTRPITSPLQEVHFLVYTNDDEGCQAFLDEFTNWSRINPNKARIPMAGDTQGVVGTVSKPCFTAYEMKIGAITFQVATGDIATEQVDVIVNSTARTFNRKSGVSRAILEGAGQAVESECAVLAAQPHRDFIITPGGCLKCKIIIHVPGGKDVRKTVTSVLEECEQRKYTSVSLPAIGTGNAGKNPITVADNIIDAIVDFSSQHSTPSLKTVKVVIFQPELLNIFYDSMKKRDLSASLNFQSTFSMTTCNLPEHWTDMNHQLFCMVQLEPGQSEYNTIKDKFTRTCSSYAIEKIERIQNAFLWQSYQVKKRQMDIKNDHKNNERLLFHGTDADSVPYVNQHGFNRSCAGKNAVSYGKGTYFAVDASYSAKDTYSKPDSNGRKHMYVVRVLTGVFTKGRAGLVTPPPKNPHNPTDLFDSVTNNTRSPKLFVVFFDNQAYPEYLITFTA
The series is described as follows: Inhibition of human N-terminal 6His-tagged PARP15 (460 to 656 residues) expressed in Escherichia coli Rosetta2 (DE3) cells using NAD+ as substrate incubated for 10 mins by fluorescence based analysis.

In a further series the test system is HeLa. The series is described as follows: Rescue of cell viability in human HeLa cells expressing wild type PARP10 at upto 10 uM incubated for 10 to 12 days by methylene blue dye based colony formation assay. Format: functional.
The target of series [2] is Poly [ADP-ribose] polymerase 2 (Homo sapiens, UniProt Q9UGN5). The series is described as follows: Inhibition of human PARP2 using NAD+ as substrate incubated for 10 mins by fluorescence based analysis.
Poly [ADP-ribose] polymerase 2, sequence (Q9UGN5 whole entry): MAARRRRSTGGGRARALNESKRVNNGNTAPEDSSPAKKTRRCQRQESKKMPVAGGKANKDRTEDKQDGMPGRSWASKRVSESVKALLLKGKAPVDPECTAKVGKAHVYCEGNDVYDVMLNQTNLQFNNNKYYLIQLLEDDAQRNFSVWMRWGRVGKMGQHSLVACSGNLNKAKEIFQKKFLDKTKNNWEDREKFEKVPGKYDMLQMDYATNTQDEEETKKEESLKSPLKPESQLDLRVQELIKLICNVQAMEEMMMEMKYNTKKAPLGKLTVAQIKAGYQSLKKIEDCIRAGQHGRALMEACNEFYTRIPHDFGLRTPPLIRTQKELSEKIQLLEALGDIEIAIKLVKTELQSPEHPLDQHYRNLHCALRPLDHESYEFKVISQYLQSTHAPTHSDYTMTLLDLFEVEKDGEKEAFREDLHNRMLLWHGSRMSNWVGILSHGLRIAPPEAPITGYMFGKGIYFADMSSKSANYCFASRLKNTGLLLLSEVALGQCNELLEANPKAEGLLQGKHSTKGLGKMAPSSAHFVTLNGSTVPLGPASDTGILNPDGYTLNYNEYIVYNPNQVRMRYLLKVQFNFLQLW
Series [3] addresses Protein mono-ADP-ribosyltransferase PARP4 (Homo sapiens, UniProt Q9UKK3). The series is described as follows: Inhibition of human PARP4.
Series [4] has as its target T2, Protein mono-ADP-ribosyltransferase PARP3 (Homo sapiens, UniProt Q9Y6F1).
T2 sequence (Q9Y6F1 whole entry): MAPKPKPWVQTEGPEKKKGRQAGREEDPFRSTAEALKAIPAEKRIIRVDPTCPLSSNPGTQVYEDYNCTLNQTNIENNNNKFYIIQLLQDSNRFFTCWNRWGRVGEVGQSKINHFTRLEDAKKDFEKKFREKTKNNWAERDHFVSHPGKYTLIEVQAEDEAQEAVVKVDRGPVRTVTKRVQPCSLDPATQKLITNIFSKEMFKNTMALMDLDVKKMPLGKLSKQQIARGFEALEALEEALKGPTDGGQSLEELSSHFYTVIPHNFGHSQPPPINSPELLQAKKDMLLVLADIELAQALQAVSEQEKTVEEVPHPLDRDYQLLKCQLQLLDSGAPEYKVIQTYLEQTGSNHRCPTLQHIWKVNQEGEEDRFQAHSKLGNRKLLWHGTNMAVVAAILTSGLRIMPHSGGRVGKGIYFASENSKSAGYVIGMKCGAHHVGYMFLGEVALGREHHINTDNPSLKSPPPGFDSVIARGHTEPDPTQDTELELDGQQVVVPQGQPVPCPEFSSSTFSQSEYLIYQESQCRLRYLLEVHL
The series is described as follows: Inhibition of human PARP3.

The target in series [5] is T3, Poly [ADP-ribose] polymerase tankyrase-2 (Homo sapiens, UniProt Q9H2K2).
T3 sequence (Q9H2K2 whole entry): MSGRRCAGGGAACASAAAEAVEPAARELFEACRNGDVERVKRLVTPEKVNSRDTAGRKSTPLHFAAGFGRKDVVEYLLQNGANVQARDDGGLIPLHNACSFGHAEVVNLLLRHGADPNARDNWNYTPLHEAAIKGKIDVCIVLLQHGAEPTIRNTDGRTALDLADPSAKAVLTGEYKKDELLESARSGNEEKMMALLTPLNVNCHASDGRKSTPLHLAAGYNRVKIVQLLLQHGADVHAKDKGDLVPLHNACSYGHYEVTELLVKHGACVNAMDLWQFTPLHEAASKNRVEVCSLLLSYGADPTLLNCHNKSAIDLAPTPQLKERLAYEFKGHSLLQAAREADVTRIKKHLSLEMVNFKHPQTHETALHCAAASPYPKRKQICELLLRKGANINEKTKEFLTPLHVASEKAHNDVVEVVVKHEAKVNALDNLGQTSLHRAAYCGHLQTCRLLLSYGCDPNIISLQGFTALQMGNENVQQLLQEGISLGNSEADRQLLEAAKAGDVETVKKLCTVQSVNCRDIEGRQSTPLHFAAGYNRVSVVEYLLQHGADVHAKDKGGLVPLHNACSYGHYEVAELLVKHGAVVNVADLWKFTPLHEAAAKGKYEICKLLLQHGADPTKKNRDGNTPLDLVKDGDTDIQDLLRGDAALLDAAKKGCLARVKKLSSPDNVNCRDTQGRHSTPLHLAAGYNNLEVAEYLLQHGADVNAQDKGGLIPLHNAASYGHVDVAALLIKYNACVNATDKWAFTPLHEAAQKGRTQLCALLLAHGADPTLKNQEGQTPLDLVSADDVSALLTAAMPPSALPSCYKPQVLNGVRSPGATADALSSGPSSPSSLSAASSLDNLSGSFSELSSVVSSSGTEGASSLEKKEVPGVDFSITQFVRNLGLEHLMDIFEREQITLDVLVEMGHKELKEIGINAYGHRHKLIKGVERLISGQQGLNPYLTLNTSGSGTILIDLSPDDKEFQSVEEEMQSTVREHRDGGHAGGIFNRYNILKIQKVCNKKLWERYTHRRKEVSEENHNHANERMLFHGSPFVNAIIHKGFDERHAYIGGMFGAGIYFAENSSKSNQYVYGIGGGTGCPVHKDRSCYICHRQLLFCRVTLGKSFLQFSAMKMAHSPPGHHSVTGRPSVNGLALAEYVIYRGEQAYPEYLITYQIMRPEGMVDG
The series is described as follows: Inhibition of human N-terminal 6His-tagged TNKS2 (1030 to 1317 residues) expressed in Escherichia coli Rosetta2 (DE3) cells using NAD+ as substrate incubated for 10 mins by fluorescence based analysis.

The next series concerns HEK-293T. The series is described as follows: Cytotoxicity against HEK293T cells assessed as reduction in cell viability at 10 uM measured after 24 hrs by WST-1 assay. Format: toxicity, cell-based. Particulars: human.
The target in series [6] is Poly [ADP-ribose] polymerase 1 (Homo sapiens, UniProt P09874). The series is described as follows: Inhibition of human PARP-1 using NAD+ as substrate incubated for 10 mins by fluorescence based analysis.
Poly [ADP-ribose] polymerase 1, sequence (P09874 whole entry): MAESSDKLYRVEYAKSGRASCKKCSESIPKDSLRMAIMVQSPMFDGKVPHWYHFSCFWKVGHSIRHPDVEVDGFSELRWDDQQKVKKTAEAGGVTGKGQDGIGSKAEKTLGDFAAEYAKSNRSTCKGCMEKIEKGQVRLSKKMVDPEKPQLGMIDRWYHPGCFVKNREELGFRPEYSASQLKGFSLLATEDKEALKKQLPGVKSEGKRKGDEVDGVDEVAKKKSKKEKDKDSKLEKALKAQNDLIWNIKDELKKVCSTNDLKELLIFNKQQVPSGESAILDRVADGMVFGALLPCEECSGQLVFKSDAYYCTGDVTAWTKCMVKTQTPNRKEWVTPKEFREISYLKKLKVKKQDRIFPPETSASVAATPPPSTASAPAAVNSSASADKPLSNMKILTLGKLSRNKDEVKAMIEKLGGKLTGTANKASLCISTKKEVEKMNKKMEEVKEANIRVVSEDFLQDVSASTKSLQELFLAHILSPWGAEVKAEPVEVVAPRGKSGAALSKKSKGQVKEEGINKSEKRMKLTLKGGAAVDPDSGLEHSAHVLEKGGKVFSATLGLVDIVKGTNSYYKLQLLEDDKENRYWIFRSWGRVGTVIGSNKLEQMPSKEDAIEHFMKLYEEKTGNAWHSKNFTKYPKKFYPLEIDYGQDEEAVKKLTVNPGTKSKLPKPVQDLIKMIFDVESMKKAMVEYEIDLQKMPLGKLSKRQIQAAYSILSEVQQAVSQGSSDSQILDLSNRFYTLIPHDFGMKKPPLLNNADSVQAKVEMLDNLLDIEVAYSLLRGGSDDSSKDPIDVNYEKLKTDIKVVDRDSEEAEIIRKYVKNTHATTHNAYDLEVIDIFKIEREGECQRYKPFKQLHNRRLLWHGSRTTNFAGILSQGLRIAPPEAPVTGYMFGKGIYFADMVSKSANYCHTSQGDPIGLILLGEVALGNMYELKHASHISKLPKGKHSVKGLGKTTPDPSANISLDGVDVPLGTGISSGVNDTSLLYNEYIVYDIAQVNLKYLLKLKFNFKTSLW

Protein mono-ADP-ribosyltransferase PARP4, sequence (Q9UKK3 whole entry): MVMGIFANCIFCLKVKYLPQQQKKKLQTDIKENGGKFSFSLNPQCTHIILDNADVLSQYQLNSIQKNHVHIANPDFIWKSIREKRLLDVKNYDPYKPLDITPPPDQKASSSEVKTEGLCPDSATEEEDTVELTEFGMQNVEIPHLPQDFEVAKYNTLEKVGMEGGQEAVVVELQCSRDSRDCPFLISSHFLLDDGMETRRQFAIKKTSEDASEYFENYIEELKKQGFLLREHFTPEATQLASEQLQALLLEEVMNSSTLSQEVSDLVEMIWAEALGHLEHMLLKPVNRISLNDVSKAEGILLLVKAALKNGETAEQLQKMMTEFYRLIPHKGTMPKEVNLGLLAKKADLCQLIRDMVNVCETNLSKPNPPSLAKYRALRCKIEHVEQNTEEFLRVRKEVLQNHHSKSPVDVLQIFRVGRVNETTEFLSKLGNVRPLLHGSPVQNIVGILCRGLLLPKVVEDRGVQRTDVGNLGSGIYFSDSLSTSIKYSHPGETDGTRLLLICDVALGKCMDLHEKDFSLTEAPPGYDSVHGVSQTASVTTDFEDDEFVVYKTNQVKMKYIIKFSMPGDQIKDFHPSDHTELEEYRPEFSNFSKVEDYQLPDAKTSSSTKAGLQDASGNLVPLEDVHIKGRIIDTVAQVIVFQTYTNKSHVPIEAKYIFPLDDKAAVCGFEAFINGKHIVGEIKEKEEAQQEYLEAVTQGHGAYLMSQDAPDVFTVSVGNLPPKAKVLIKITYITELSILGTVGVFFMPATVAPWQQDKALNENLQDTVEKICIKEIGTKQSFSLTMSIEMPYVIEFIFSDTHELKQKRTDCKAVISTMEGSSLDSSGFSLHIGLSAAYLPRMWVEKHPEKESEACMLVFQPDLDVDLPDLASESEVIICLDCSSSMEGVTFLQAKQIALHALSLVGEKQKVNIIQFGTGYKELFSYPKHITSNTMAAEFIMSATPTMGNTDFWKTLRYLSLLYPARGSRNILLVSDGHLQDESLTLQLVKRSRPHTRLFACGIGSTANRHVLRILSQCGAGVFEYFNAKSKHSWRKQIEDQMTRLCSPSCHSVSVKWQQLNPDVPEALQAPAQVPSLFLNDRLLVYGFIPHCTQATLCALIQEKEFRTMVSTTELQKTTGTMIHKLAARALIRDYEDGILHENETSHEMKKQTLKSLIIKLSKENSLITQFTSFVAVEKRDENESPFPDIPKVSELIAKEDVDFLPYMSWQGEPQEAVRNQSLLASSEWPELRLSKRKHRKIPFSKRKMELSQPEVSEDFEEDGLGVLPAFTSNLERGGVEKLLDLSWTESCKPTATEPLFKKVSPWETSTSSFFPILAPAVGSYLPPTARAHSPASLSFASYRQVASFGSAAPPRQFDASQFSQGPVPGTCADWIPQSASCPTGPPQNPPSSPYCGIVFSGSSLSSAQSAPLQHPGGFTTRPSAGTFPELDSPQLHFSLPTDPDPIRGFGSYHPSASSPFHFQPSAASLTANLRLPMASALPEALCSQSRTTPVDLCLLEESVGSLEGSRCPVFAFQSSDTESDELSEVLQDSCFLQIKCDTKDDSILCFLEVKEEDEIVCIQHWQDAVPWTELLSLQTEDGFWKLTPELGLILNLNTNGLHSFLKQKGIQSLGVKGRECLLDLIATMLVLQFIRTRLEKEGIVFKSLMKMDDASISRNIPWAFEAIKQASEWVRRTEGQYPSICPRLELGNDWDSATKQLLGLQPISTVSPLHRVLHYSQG

Consider `NC(=O)c1ccc(OCC2CCC2)cc1`, for which the pIC50 in series [1] was 5.62; in series [2] it was 4.42; in series [3], less than 4.00; in series [4], less than 4.00; in series [5], less than 4.00; in series [6], less than 4.00. The compound also gave a pEC50 in the series with HeLa of 6.23. In the series with HEK-293T, the Activity entry is “Non-Toxic”.
